Data reported in ChEMBL document CHEMBL3885861, “Open TG-GATES”.

Species: Rattus norvegicus
Test: Open TG-GATES - Regimen: Single
Assay type: toxicity, organism-based, Sprague-Dawley
Parameters: regimen Single, gender Male, age 6 weeks
Details: in vivo, po, 120 mg/kg, route gavage, dose level Middle; for APTT / Bas / Eos / Fbg / Hb / Ht / Lym / MCH / MCHC / MCV / Mono / Neu / PT / Plat / RBC / Ret / WBC: tissue Blood; for KIDNEY_L / KIDNEY_R / KIDNEY_TOTAL: tissue Kidney; for LIVER: tissue Liver; for A/G / ALP / ALT / AST / BUN / CRE / Ca / Cl / DBIL / GLC / IP / K / LDH / Na / PL / RALB / TBIL / TC / TG / TP / gamma-GTP: tissue Plasma

`COc1ccc(Cc2nccc3cc(OC)c(OC)cc23)cc1OC` [PAPAVERINE] was tested, and the TERMINAL_BW (3 h) was 221.6 g, the APTT (3 h) was 22.7 s and the Bas (3 h) was 0%. It also gave an Eos (3 h) of 1%, a Fbg (3 h) of 312.8 mg/dL and a Hb (3 h) of 13.4 g/dL. It also gave a Ht (3 h) of 40.5%, a Lym (3 h) of 77.6% and an MCH (3 h) of 20.9 pg. It also gave an MCHC (3 h) of 33.2%, an MCV (3 h) of 63 fL and a Mono (3 h) of 2.4%. For the same compound, the Neu (3 h) was 17.8%, the PT (3 h) was 15.9 s and the Plat (3 h) was 108.5 x10_4/uL. It also gave an RBC (3 h) of 641.8 x10_4/ul, a Ret (3 h) of 7.3% and a WBC (3 h) of 88.5 x10_2/uL. The KIDNEY_L (3 h) was 0.9 g, the KIDNEY_R (3 h) was 1 g and the KIDNEY_TOTAL (3 h) was 1.9 g. For the same compound, the LIVER (3 h) was 9.5 g, the A/G (3 h) was 1.2 and the ALP (3 h) was 1542 IU/L. For the same compound, the ALT (3 h) was 43.6 IU/L, the AST (3 h) was 78.6 IU/L and the BUN (3 h) was 11.4 mg/dL. It also gave a CRE (3 h) of 0.1 mg/dL, a Ca (3 h) of 11 mg/dL and a Cl (3 h) of 107.8 meq/L. It also gave a DBIL (3 h) of 0 mg/dL, a GLC (3 h) of 181.4 mg/dL and an IP (3 h) of 8.7 mg/dL. For the same compound, the K (3 h) was 4 meq/L, the LDH (3 h) was 162.8 IU/L and the Na (3 h) was 141.8 meq/L. For the same compound, the PL (3 h) was 128.4 mg/dL, the RALB (3 h) was 2.9 g/dL and the TBIL (3 h) was 0.008 mg/dL. The TC (3 h) was 74.6 mg/dL, the TG (3 h) was 43.8 mg/dL and the TP (3 h) was 5.3 g/dL. It also gave a gamma-GTP (3 h) of 2 IU/L, a TERMINAL_BW (6 h) of 219.8 g and an APTT (6 h) of 20.9 s. The Bas (6 h) was 0%, the Eos (6 h) was 0.8% and the Fbg (6 h) was 317.8 mg/dL. It also gave a Hb (6 h) of 13 g/dL, a Ht (6 h) of 39.5% and a Lym (6 h) of 80.2%. For the same compound, the MCH (6 h) was 20.9 pg, the MCHC (6 h) was 32.9% and the MCV (6 h) was 63.7 fL. For the same compound, the Mono (6 h) was 2.8%, the Neu (6 h) was 14.6% and the PT (6 h) was 15.8 s. The Plat (6 h) was 131.3 x10_4/uL, the RBC (6 h) was 622.4 x10_4/ul and the Ret (6 h) was 8.7%. It also gave a WBC (6 h) of 116 x10_2/uL, a KIDNEY_L (6 h) of 1 g and a KIDNEY_R (6 h) of 1 g. The KIDNEY_TOTAL (6 h) was 1.9 g, the LIVER (6 h) was 9.5 g and the A/G (6 h) was 1.3. For the same compound, the ALP (6 h) was 1418.8 IU/L, the ALT (6 h) was 36.6 IU/L and the AST (6 h) was 71.6 IU/L. For the same compound, the BUN (6 h) was 11.2 mg/dL, the CRE (6 h) was 0.2 mg/dL and the Ca (6 h) was 11.4 mg/dL. For the same compound, the Cl (6 h) was 107.2 meq/L, the DBIL (6 h) was 0 mg/dL and the GLC (6 h) was 181 mg/dL. It also gave an IP (6 h) of 9.4 mg/dL, a K (6 h) of 4.3 meq/L and an LDH (6 h) of 166.2 IU/L. It also gave a Na (6 h) of 140.4 meq/L, a PL (6 h) of 137.4 mg/dL and an RALB (6 h) of 3.1 g/dL. The TBIL (6 h) was 0.022 mg/dL, the TC (6 h) was 78.2 mg/dL and the TG (6 h) was 63.8 mg/dL. For the same compound, the TP (6 h) was 5.5 g/dL, the gamma-GTP (6 h) was 2.4 IU/L and the TERMINAL_BW (9 h) was 217.8 g. The APTT (9 h) was 22.6 s, the Bas (9 h) was 0% and the Eos (9 h) was 1%. The Fbg (9 h) was 319.4 mg/dL, the Hb (9 h) was 13.2 g/dL and the Ht (9 h) was 39.5%. It also gave a Lym (9 h) of 73.8%, an MCH (9 h) of 20.6 pg and an MCHC (9 h) of 33.4%. The MCV (9 h) was 61.8 fL, the Mono (9 h) was 2.8% and the Neu (9 h) was 22%. It also gave a PT (9 h) of 16.2 s, a Plat (9 h) of 117.1 x10_4/uL and an RBC (9 h) of 638.6 x10_4/ul. For the same compound, the Ret (9 h) was 6.6%, the WBC (9 h) was 87.6 x10_2/uL and the KIDNEY_L (9 h) was 0.9 g. The KIDNEY_R (9 h) was 1 g, the KIDNEY_TOTAL (9 h) was 1.9 g and the LIVER (9 h) was 8.9 g. For the same compound, the A/G (9 h) was 1.2, the ALP (9 h) was 1569.2 IU/L and the ALT (9 h) was 39.2 IU/L. It also gave an AST (9 h) of 72 IU/L, a BUN (9 h) of 11.6 mg/dL and a CRE (9 h) of 0.1 mg/dL. The Ca (9 h) was 11 mg/dL, the Cl (9 h) was 107.6 meq/L and the DBIL (9 h) was 0 mg/dL. It also gave a GLC (9 h) of 183.8 mg/dL, an IP (9 h) of 8.9 mg/dL and a K (9 h) of 3.9 meq/L. It also gave an LDH (9 h) of 183.2 IU/L, a Na (9 h) of 141 meq/L and a PL (9 h) of 132.8 mg/dL. For the same compound, the RALB (9 h) was 3 g/dL, the TBIL (9 h) was 0.022 mg/dL and the TC (9 h) was 74 mg/dL. The TG (9 h) was 54.6 mg/dL, the TP (9 h) was 5.4 g/dL and the gamma-GTP (9 h) was 1.6 IU/L. The TERMINAL_BW (24 h) was 231.5 g, the APTT (24 h) was 19.5 s and the Bas (24 h) was 0%. For the same compound, the Eos (24 h) was 1%, the Fbg (24 h) was 327.8 mg/dL and the Hb (24 h) was 13.3 g/dL. The Ht (24 h) was 39.7%, the Lym (24 h) was 80.2% and the MCH (24 h) was 21 pg. For the same compound, the MCHC (24 h) was 33.5%, the MCV (24 h) was 62.7 fL and the Mono (24 h) was 2%. It also gave a Neu (24 h) of 15.2%, a PT (24 h) of 15.6 s and a Plat (24 h) of 124.7 x10_4/uL. It also gave an RBC (24 h) of 633.8 x10_4/ul, a Ret (24 h) of 7.6% and a WBC (24 h) of 82.4 x10_2/uL. The KIDNEY_L (24 h) was 1 g, the KIDNEY_R (24 h) was 1 g and the KIDNEY_TOTAL (24 h) was 2 g. For the same compound, the LIVER (24 h) was 11.2 g, the A/G (24 h) was 1.3 and the ALP (24 h) was 1530.4 IU/L. The ALT (24 h) was 39.4 IU/L, the AST (24 h) was 67.6 IU/L and the BUN (24 h) was 15 mg/dL. The CRE (24 h) was 0.1 mg/dL, the Ca (24 h) was 11.1 mg/dL and the Cl (24 h) was 105.8 meq/L. It also gave a DBIL (24 h) of 0 mg/dL, a GLC (24 h) of 189 mg/dL and an IP (24 h) of 7.8 mg/dL. For the same compound, the K (24 h) was 4.2 meq/L, the LDH (24 h) was 171.2 IU/L and the Na (24 h) was 143.4 meq/L. For the same compound, the PL (24 h) was 152.4 mg/dL, the RALB (24 h) was 3.1 g/dL and the TBIL (24 h) was 0.006 mg/dL. For the same compound, the TC (24 h) was 79.2 mg/dL, the TG (24 h) was 145.2 mg/dL and the TP (24 h) was 5.6 g/dL. The gamma-GTP (24 h) was 1.4 IU/L.
